In assay [1] the test system is picornaviruses (CVB1, HRV-A2, HRV-A23, EV-68). In words: Anti-picornavirus cytopathic effect (CPE) reduction assay on HeLa H1 cells. It is filed as cell-based. The following applies: HeLa H1 cells, 48 h, category from averaging the EC50 values from four picornaviruses (CVB1, HRV-A2, HRV-A23, EV68), read-out: EC50 values of the compounds determined in the anti-picornavirus assay. In a few lines: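 HeLa H1 cells pre-treated 2 h with serially diluted compound in DMEM/2% FBS, then infected at an MOI giving full CPE in 2 days. After 48 h at 37° C, viability read by CellTiterBlue fluorescence (ex 560/em 590 nm), normalised to infected and uninfected vehicle controls; EC50 by non-linear regression, category from mean of four viruses.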

The target of the next assay is T1, PLA2G16 (Homo sapiens, UniProt P53816).
T1 construct: Hexa-His (N); made in house; host or cells: E. coli BL21(DE3)
T1 sequence (P53816 1-162): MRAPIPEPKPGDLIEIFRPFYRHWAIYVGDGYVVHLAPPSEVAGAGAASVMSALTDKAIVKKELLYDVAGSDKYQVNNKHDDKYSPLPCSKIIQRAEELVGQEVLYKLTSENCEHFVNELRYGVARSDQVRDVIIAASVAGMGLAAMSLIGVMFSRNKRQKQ
In words: Enzyme activity assay for PLA2G16 (Red/Green BODIPY PC-A2 fluorescence). Type of assay: biochemical. As to conditions: His-tagged PLA2G16, 4 min pre-incubation, 2 nM to 50 μM; read-out: IC50 values of the compounds determined in the enzyme activity assay for PLA2G16. Put shortly:
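N-His-tagged human PLA2G16 from E. coli, Ni-NTA purified. Pre-incubated 4 min with compound (2 nM–50 μM final) in pH 8.5 Tris/NaCl buffer with 5 mM glutathione, then BODIPY PC-A2 in DOPC/DOPG/cholesterol vesicles added. Fluorescence (ex 480/em 530 nm) increase over 10 min taken as activity; IC50 by non-linear regression.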

Read-outs that look alike come from different tables or passages of the source. Some results are limits rather than exact numbers.

Consider `O=C(NCCCO)C(=O)C1CCC(=O)N1Cc1ccc(Cl)cc1` (stereo not drawn) [FP 275, 2-{1-[(4-Chlorophenyl)methyl]-5-oxopyrrolidin-2-yl}-N-(3-hydroxypropyl)-2-oxoacetamide], for which the EC50 in assay [1] (Enterovirus B, HeLa H1, 48 h) is over 10 µM. Also, the half-inhibitory concentration (IC50) at PLA2G16 is under 1 µM.
For the compound `Cc1csc(CN2C(=O)CCC2C(=O)C(=O)NCC2CCCC2)n1` (stereo not drawn), the EC50 in assay [1] (Enterovirus B, CVB1|EV68|HRVA2|HRVA23, HeLa H1, 48 h) was under 1 µM. In addition, the IC50 at PLA2G16 was under 1 µM.
For `CC(C)[C@H](C(=O)C(=O)NCC1CC1)N(C=O)CC(C)(C)C` (single isomer, unassigned) [FP 32], the EC50 in assay [1] (Enterovirus B, HeLa H1, 48 h) was over 10 µM. In addition, the half-inhibitory concentration (IC50) at PLA2G16 is under 1 µM.
For `CC(C)OCCCNC(=O)C(=O)[C@H]1CCC(=O)N1Cc1ccccc1` [FP 301, 2-[(2R)-1-Benzyl-5-oxopyrrolidin-2-yl]-2-oxo-N-[3-(propan-2-yloxy)propyl]acetamide], in that order: under 1 µM and under 1 µM.
For `CC(C)N(C=O)C(C)C(=O)C(=O)NCC1CCCCC1` (stereo not drawn) [FP 48, N-(Cyclohexylmethyl)-2-oxo-3-[N-(propan-2-yl)formamido]butanamide], in that order: 1 to 10 µM and under 1 µM.
The corresponding values for `CC(C)CN(C=O)C(C(=O)C(=O)NCC1CC1)C(C)C` (stereo not drawn) [FP 30, N-(Cyclopropylmethyl)-4-methyl-3-[N-(2-methylpropyl)formamido]-2-oxopentanamide] are 1 to 10 µM and under 1 µM.
As to `CNC(=O)C(=O)[C@H]1CCC(=O)N1Cc1ccc(Cl)cc1` [FP 283, 2-[(2R)-1-[(4-Chlorophenyl)methyl]-5-oxopyrrolidin-2-yl]-N-methyl-2-oxoacetamide], in assay [1] (Enterovirus B, HeLa H1, 48 h), the EC50 fell in the range of 1 to 10 µM. For the same compound, the IC50 on PLA2G16 was under 1 µM.
As for `O=C(NC1CCN(S(=O)(=O)C2CC2)CC1)C(=O)[C@H]1CCC(=O)N1Cc1ccccc1` [FP 320, 2-[(2R)-1-Benzyl-5-oxopyrrolidin-2-yl]-N-[1-(cyclopropanesulfonyl)piperidin-4-yl]-2-oxoacetamide], the EC50 in assay [1] (Enterovirus B, HeLa H1, 48 h) was under 1 µM. Besides, the IC50 at PLA2G16 was under 1 µM.
For `CC(C)CC(C(=O)C(=O)NCC1CC1)N(C=O)CC1CCOC1` (stereo not drawn) [FP 73, N-(Cyclopropylmethyl)-5-methyl-2-oxo-3-{N-[(oxolan-3-yl)methyl]formamido} hexanamide], the 50% effective concentration (EC50) in assay [1] (Enterovirus B, HeLa H1, 48 h) was 1 to 10 µM. In addition, the IC50 at PLA2G16 was under 1 µM.
`O=CN(CC1CCOCC1)C(C(=O)C(=O)NCC1CC1)C1CC1` (stereo not drawn) [FP 66, 3-Cyclopropyl-N-(cyclopropylmethyl)-3-{N-[(oxan-4-yl)methyl]formamido}-2-oxopropanamide]: the EC50 in assay [1] (Enterovirus B, HeLa H1, 48 h) lay within 1 to 10 µM. In addition, the IC50 at PLA2G16 was under 1 µM.
Turning to `O=C(NCCO)C(=O)C1CCC(=O)N1Cc1ccc(Cl)cc1` (stereo not drawn) [FP 256, 2-{1-[(4-Chlorophenyl)methyl]-5-oxopyrrolidin-2-yl}-N-(2-hydroxyethyl)-2-oxoacetamide], the EC50 in assay [1] (Enterovirus B, HeLa H1, 48 h) lay in the range of 1 to 10 µM. Moreover, the IC50 on PLA2G16 is under 1 µM.
For `COc1cc(F)ccc1N(C=O)C(C)C(=O)C(=O)NCc1cccc(Cl)c1` (stereo not drawn) [FP 8, N-[(3-Chlorophenyl)methyl]-3-[N-(4-fluoro-2-methoxyphenyl)formamido]-2-oxobutanamide], in that order: under 1 µM and under 1 µM.
The corresponding values for `CC(OC1CCCCC1)C(=O)C(=O)NCC1CCC1` (stereo not drawn) [FP 126, N-(Cyclobutylmethyl)-3-(cyclohexyloxy)-2-oxobutanamide] are under 1 µM and under 1 µM.
The corresponding values for `CC(C)C(C(=O)C(=O)NCC1CC1)N(C=O)CC(C)(C)C` (stereo not drawn) [FP 31, N-(Cyclopropylmethyl)-3-[N-(2,2-dimethylpropyl)formamido]-4-methyl-2-oxopentanamide] are 1 to 10 µM and under 1 µM.
For `CC(C(=O)C(=O)NCC1CCCCC1)N(C(=O)CNS(C)(=O)=O)C1CCCCC1` (stereo not drawn) [FP 162, 3-(N-Cyclohexyl-2-methanesulfonamidoacetamido)-N-(cyclohexylmethyl)-2-oxobutanamide], in assay [1] (Enterovirus B, HeLa H1, 48 h), the EC50 is over 10 µM. Besides, the IC50 at PLA2G16 lay in the range of 10 to 50 µM.
For `O=C(NC1CN(C(=O)C2CCCC2)C1)C(=O)[C@H]1CCC(=O)N1Cc1ccccc1` [FP 319, 2-[(2R)-1-Benzyl-5-oxopyrrolidin-2-yl]-N-(1-cyclopentanecarbonylazetidin-3-yl)-2-oxoacetamide], in that order: 1 to 10 µM and under 1 µM.
`CC1CC(=O)N(Cc2ccccc2)[C@@H]1C(=O)C(=O)NC1CC1` (single isomer, unassigned) [FP 339]: the EC50 in assay [1] is over 10 µM. In addition, the half-inhibitory concentration (IC50) at PLA2G16 fell in the range of 1 to 10 µM.
Regarding `O=C(NC1CC1)C(=O)C1N(Cc2ccccc2)C(=O)CC12CC2` (stereo not drawn) [FP 345, 2-{5-Benzyl-6-oxo-5-azaspiro[2.4]heptan-4-yl}-N-cyclopropyl-2-oxoacetamide], the EC50 in assay [1] (Enterovirus B, HeLa H1, 48 h) was under 1 µM. For the same compound, the IC50 on PLA2G16 was under 1 µM.
Turning to `O=C(N[C@@H]1CCCC[C@@H]1O)C(=O)[C@H]1CCC(=O)N1Cc1ccccc1` (single isomer, unassigned) [FP 272], the EC50 in assay [1] (Enterovirus B, HeLa H1, 48 h) is over 10 µM. For the same compound, the IC50 on PLA2G16 lay in the range of 1 to 10 µM.
The corresponding values for `NC(=O)c1ccc(CN2C(=O)CCC2C(=O)C(=O)NCC2CCCCC2)cc1` (stereo not drawn) [FP 252, 4-[(2-{[(Cyclohexylmethyl)carbamoyl]carbonyl}-5-oxopyrrolidin-1-yl)methyl]benzamide] are 1 to 10 µM and under 1 µM.
For `COc1ccccc1N(C=O)C(C)C(=O)C(=O)NC(C)C` (stereo not drawn) [FP 28, 3-[N-(2-Methoxyphenyl)formamido]-2-oxo-N-(propan-2-yl)butanamide], in that order: 1 to 10 µM and under 1 µM.
On to `Cc1noc(CNC(=O)C(=O)[C@H]2CCC(=O)N2Cc2ccccc2)n1` [FP 287, 2-[(2R)-1-Benzyl-5-oxopyrrolidin-2-yl]-N-[(3-methyl-1,2,4-oxadiazol-5-yl)methyl]-2-oxoacetamide], for which the half-maximal effective concentration (EC50) in assay [1] (Enterovirus B, HeLa H1, 48 h) lay within 1 to 10 µM. Moreover, the half-inhibitory concentration (IC50) at PLA2G16 was under 1 µM.
The corresponding values for `O=C(NC1CC1)C(=O)C1CCC(=O)N1Cc1cccc(Cl)c1` (stereo not drawn) [FP 240, 2-{1-[(3-Chlorophenyl)methyl]-5-oxopyrrolidin-2-yl}-N-cyclopropyl-2-oxoacetamide] are 1 to 10 µM and under 1 µM.
For `CC(NC(=O)c1ccccc1)C(=O)C(=O)NCC1CCC1` (stereo not drawn) [FP 181, N-(Cyclobutylmethyl)-2-oxo-3-(phenylformamido)butanamide], in that order: 1 to 10 µM and under 1 µM.
Turning to `CCC(NC(=O)c1cnccc1C)C(=O)C(=O)NCC1CCCCC1` (stereo not drawn) [FP 211, N-(Cyclohexylmethyl)-3-[(4-methylpyridin-3-yl)formamido]-2-oxopentanamide], in assay [1] (Enterovirus B, HeLa H1, 48 h), the EC50 lay within 1 to 10 µM. Moreover, the IC50 at PLA2G16 is under 1 µM.
Turning to `O=CN(Cc1ccccc1)[C@@H](Cc1cn(C(c2ccccc2)(c2ccccc2)c2ccccc2)cn1)C(=O)C(=O)NCC1CC1` [FP 117, (3S)-3-(N-Benzylformamido)-N-(cyclopropylmethyl)-2-oxo-4-[1-(triphenylmethyl)-1H-imidazol-4-yl]butanamide], the EC50 in assay [1] (Enterovirus B, HeLa H1, 48 h) was under 1 µM. For the same compound, the IC50 on PLA2G16 was under 1 µM.
For the compound `CC(C(=O)C(=O)NCc1cccc(Cl)c1)N(C)C(=O)c1ccccc1` (stereo not drawn) [FP 160, N-[(3-Chlorophenyl)methyl]-3-(N-methyl-1-phenylformamido)-2-oxobutanamide], in assay [1] (Enterovirus B, HeLa H1, 48 h), the EC50 was 1 to 10 µM. Further, the IC50 at PLA2G16 is under 1 µM.
`CC(C(=O)C(=O)NCC1CCCC1)N(C=O)Cc1ccccc1` (stereo not drawn) [FP 200, 3-(N-Benzylformamido)-N-(cyclopentylmethyl)-2-oxobutanamide]: the EC50 in assay [1] (Enterovirus B, HeLa H1, 48 h) is under 1 µM. For the same compound, the IC50 at PLA2G16 was under 1 µM.
`CC(NC(=O)Cc1ccccc1)C(=O)C(=O)NCC1CC1` (stereo not drawn) [FP 167, N-(Cyclopropylmethyl)-2-oxo-3-(2-phenylacetamido)butanamide]: the EC50 in assay [1] (Enterovirus B, HeLa H1, 48 h) was over 10 µM. Also, the IC50 on PLA2G16 is under 1 µM.
The corresponding values for `O=C(COCC1CCCCC1)C(=O)NCC1CC1` [FP 129, 3-(Cyclohexylmethoxy)-N-(cyclopropylmethyl)-2-oxopropanamide] are over 10 µM and under 1 µM.
The corresponding values for `N#Cc1ccc(CN2C(=O)CCC2C(=O)C(=O)NCC2CC2)cc1` (stereo not drawn) [FP 233, 2-{1-[(4-Cyanophenyl)methyl]-5-oxopyrrolidin-2-yl}-N-(cyclopropylmethyl)-2-oxoacetamide] are 1 to 10 µM and under 1 µM.
The corresponding values for `CC(C)NC(=O)C(=O)C1CCC(=O)N1Cc1ccccc1` (stereo not drawn) [FP 308, 2-(1-Benzyl-5-oxopyrrolidin-2-yl)-2-oxo-N-(propan-2-yl)acetamide] are under 1 µM and under 1 µM.
In the case of `O=C(NCC(F)F)C(=O)[C@H]1CCC(=O)N1Cc1ccccc1` [FP 266, 2-[(2R)-1-Benzyl-5-oxopyrrolidin-2-yl]-N-(2,2-difluoroethyl)-2-oxoacetamide], the EC50 in assay [1] (Enterovirus B, HeLa H1, 48 h) was under 1 µM. For the same compound, at PLA2G16, the IC50 is under 1 µM.

The values are drawn from patent publication US11091428B2 (HAPLOGEN GMBH, priority 2016, dated 2021).
